This note sets out measurements from US20240299385A1 (ReWind Therapeutics NV, priority 2021, published 2024).

Each structure is given as a SMILES string. pIC50: −log10 of the molar value.

T1 sequence (Q13304 whole entry): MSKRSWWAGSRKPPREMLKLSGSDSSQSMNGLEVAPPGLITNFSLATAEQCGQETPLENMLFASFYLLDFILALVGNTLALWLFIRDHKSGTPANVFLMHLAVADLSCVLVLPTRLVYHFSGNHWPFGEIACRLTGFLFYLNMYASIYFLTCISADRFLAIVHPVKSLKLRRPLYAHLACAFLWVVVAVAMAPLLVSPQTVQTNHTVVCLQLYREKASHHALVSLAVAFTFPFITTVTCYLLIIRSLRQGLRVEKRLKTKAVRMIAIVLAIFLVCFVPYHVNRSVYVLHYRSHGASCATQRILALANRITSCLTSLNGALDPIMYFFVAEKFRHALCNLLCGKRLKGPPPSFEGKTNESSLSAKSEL

This assay concerns the target T1, human GPR17 receptor (Homo sapiens, UniProt Q13304).
T1 construct: host or cells: HEK-293
Put plainly: Calcium mobilization functional assay (Fluo-8, FLIPR TETRA) in HEK-293 hGPR17 (Gα-q assay). In kind it is cell-based. The note with it: antagonism of MDL29,951 (~EC80) induced Ca2+ signal; cell line (HEK-293 hGPR17 or HEK-293 Suchi5 hGPR17) not given. A digest of the protocol: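 Fluo-8-loaded HEK-293 hGPR17 cells (60 min dye loading, room temperature) were preincubated with compound for twenty minutes, then challenged with agonist MDL29,951 at ~EC80, 500 nM. Intracellular calcium release via Gα-q was recorded as FLIPR fluorescence for a further 2 minutes; compounds tested in duplicate.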
A word on the pIC50: it is the IC50 on a negative log10 scale, so that one unit is a factor of ten. As for `COc1cccc(Cc2c[nH]cc2S(=O)(=O)Nc2cc(F)c(OC(F)F)cc2F)c1` [Cpd 480, N-[4-(difluoromethoxy)-2,5-difluorophenyl]-4-[(3-methoxyphenyl)methyl]-1H-pyrrole-3-sulfonamide], the pIC50 was more than 6.30.

For the compound `O=S(=O)(Nc1cc(F)c(C(F)(F)F)cc1F)c1c[nH]cc1Cc1cccc(F)c1` [Cpd 481, N-[2,5-difluoro-4-(trifluoromethyl)phenyl]-4-[(3-fluorophenyl)methyl]-1H-pyrrole-3-sulfonamide], the negative logarithm of the IC50 (pIC50) is 5.30 to 6.30. On to `COc1cccc(Cc2c[nH]cc2S(=O)(=O)Nc2cc(F)c(C(F)(F)F)cc2F)c1` [Cpd 482, N-[2,5-difluoro-4-(trifluoromethyl)phenyl]-4-[(3-methoxyphenyl)methyl]-1H-pyrrole-3-sulfonamide], for which the negative logarithm of the IC50 (pIC50) was 5.30 to 6.30.

`O=S(=O)(Nc1cc(F)c(OC(F)F)cc1F)c1c[nH]cc1Cc1cccc(OC(F)F)c1` [Cpd 483, N-[4-(difluoromethoxy)-2,5-difluorophenyl]-4-[[3-(difluoromethoxy)phenyl]methyl]-1H-pyrrole-3-sulfonamide]: the pIC50 was 5.30 to 6.30. With `O=S(=O)(Nc1cc(F)c(OC(F)F)cc1F)c1c[nH]cc1Cc1ccccc1F` [Cpd 484, N-[4-(difluoromethoxy)-2,5-difluorophenyl]-4-[(2-fluorophenyl)methyl]-1H-pyrrole-3-sulfonamide] the figure was more than 6.30.

Regarding `O=S(=O)(Nc1cc(F)c(OC(F)F)cc1F)c1c[nH]cc1Cc1ccc(F)cc1` [Cpd 485, N-[4-(difluoromethoxy)-2,5-difluorophenyl]-4-[(4-fluorophenyl)methyl]-1H-pyrrole-3-sulfonamide], the pIC50 is 5.30 to 6.30.

`Cc1ccc(Cc2c[nH]cc2S(=O)(=O)Nc2ccc(C#N)cc2F)s1` [Cpd 486, N-(4-cyano-2-fluorophenyl)-4-[(5-methylthiophen-2-yl)methyl]-1H-pyrrole-3-sulfonamide]: the pIC50 is 5.30 to 6.30. Take `COc1ccc(Cl)cc1-c1cc(S(=O)(=O)Nc2ccc(C#N)cc2F)c[nH]1` [Cpd 488, 5-(5-chloro-2-methoxyphenyl)-N-(4-cyano-2-fluorophenyl)-1H-pyrrole-3-sulfonamide]: the negative logarithm of the IC50 (pIC50) was 5.30 to 6.30.

Consider `N#Cc1ccc(NS(=O)(=O)c2c[nH]c(-c3c(F)cc(F)cc3F)c2)c(F)c1` [Cpd 489, N-(4-cyano-2-fluorophenyl)-5-(2,4,6-trifluorophenyl)-1H-pyrrole-3-sulfonamide], for which the negative-log IC50 (pIC50) was more than 6.30. The result for `CC(=O)c1cccc(Cc2c[nH]cc2S(=O)(=O)Nc2ccc(C#N)cc2F)c1` [Cpd 490, 4-[(3-acetylphenyl)methyl]-N-(4-cyano-2-fluorophenyl)-1H-pyrrole-3-sulfonamide] reads 4.30 to 5.30. With `N#Cc1ccc(NS(=O)(=O)c2c[nH]c(Cc3ccccn3)c2)c(F)c1` [Cpd 491, N-(4-cyano-2-fluorophenyl)-5-(pyridin-2-ylmethyl)-1H-pyrrole-3-sulfonamide] the figure was 4.30 to 5.30. The result for `N#Cc1cc(F)c(NS(=O)(=O)c2c[nH]c(-c3c(F)cc(F)cc3F)c2)cc1Cl` [Cpd 492, N-(5-chloro-4-cyano-2-fluorophenyl)-5-(2,4,6-trifluorophenyl)-1H-pyrrole-3-sulfonamide] reads 5.30 to 6.30. `O=S(=O)(Nc1nc(F)c(OCCF)cc1F)c1c[nH]c(-c2ccccc2)c1` [Cpd 494, N-[3,6-difluoro-5-(2-fluoroethoxy)pyridin-2-yl]-5-phenyl-1H-pyrrole-3-sulfonamide]: the negative-log IC50 (pIC50) was more than 6.30. With `Cc1cc(NS(=O)(=O)c2c[nH]c(-c3c(F)cc(F)cc3F)c2)c(F)cc1C#N` [Cpd 495, N-(4-cyano-2-fluoro-5-methylphenyl)-5-(2,4,6-trifluorophenyl)-1H-pyrrole-3-sulfonamide] the figure was 5.30 to 6.30. With `O=S(=O)(Nc1cc(F)c(OCC(F)F)cc1F)c1c[nH]cc1-c1cccc(F)c1` [Cpd 496, N-[4-(2,2-difluoroethoxy)-2,5-difluorophenyl]-4-(3-fluorophenyl)-1H-pyrrole-3-sulfonamide] the figure was 5.30 to 6.30; with `N#Cc1cc(F)c(NS(=O)(=O)c2c[nH]cc2-c2cccc(F)c2)cc1F` [Cpd 497, N-(4-cyano-2,5-difluorophenyl)-4-(3-fluorophenyl)-1H-pyrrole-3-sulfonamide], more than 6.30; with `Cc1nc(-c2cc(S(=O)(=O)Nc3ccc(C#N)cc3F)c[nH]2)ccc1F` [Cpd 498, N-(4-cyano-2-fluorophenyl)-5-(5-fluoro-6-methylpyridin-2-yl)-1H-pyrrole-3-sulfonamide], 5.30 to 6.30. The result for `N#Cc1ccc(NS(=O)(=O)c2c[nH]c(-c3ccc(Cl)cn3)c2)c(F)c1` [Cpd 499, 5-(5-chloropyridin-2-yl)-N-(4-cyano-2-fluorophenyl)-1H-pyrrole-3-sulfonamide] reads 4.30 to 5.30; that for `Cc1ccc(-c2cc(S(=O)(=O)Nc3ccc(C#N)cc3F)c[nH]2)nc1` [Cpd 500, N-(4-cyano-2-fluorophenyl)-5-(5-methylpyridin-2-yl)-1H-pyrrole-3-sulfonamide], 4.30 to 5.30; that for `O=S(=O)(Nc1nc(F)c(OCCF)cc1F)c1c[nH]cc1Cc1ccccc1` [Cpd 501, 4-benzyl-N-[3,6-difluoro-5-(2-fluoroethoxy)pyridin-2-yl]-1H-pyrrole-3-sulfonamide], 5.30 to 6.30. As for `N#Cc1ccc(NS(=O)(=O)c2c[nH]c(-c3cccc(F)n3)c2)c(F)c1` [Cpd 502, N-(4-cyano-2-fluorophenyl)-5-(6-fluoropyridin-2-yl)-1H-pyrrole-3-sulfonamide], the pIC50 is more than 6.30. On to `Cc1ccnc(-c2cc(S(=O)(=O)Nc3ccc(C#N)cc3F)c[nH]2)c1` [Cpd 503, N-(4-cyano-2-fluorophenyl)-5-(4-methylpyridin-2-yl)-1H-pyrrole-3-sulfonamide], for which the pIC50 was 5.30 to 6.30.

On to `Cc1cccc(-c2cc(S(=O)(=O)Nc3ccc(C#N)cc3F)c[nH]2)n1` [Cpd 504, N-(4-cyano-2-fluorophenyl)-5-(6-methylpyridin-2-yl)-1H-pyrrole-3-sulfonamide], for which the pIC50 is more than 6.30.

`O=C1C=C(c2cc(S(=O)(=O)Nc3cc(F)c(C(F)(F)F)cc3F)c[nH]2)CC1` [Cpd 505, N-(2,5-difluoro-4-(trifluoromethyl)phenyl)-5-(3-oxocyclopent-1-en-1-yl)-1H-pyrrole-3-sulfonamide]: the pIC50 is 4.30 to 5.30. The result for `CN(C)c1ccccc1-c1cc(S(=O)(=O)Nc2ccc(C#N)cc2F)c[nH]1` [Cpd 506, N-(4-cyano-2-fluorophenyl)-5-[2-(dimethylamino)phenyl]-1H-pyrrole-3-sulfonamide] reads 5.30 to 6.30. The result for `N#Cc1ccc(NS(=O)(=O)c2c[nH]c(-c3cc(Cl)c(F)cc3F)c2)c(F)c1` [Cpd 507, 5-(5-chloro-2,4-difluorophenyl)-N-(4-cyano-2-fluorophenyl)-1H-pyrrole-3-sulfonamide] reads 5.30 to 6.30. The result for `N#Cc1cc(F)c(NS(=O)(=O)c2c[nH]c(-c3cc(Cl)ccc3F)c2)cc1F` [Cpd 508, 5-(5-chloro-2-fluorophenyl)-N-(4-cyano-2,5-difluorophenyl)-1H-pyrrole-3-sulfonamide] reads more than 6.30.

For `N#Cc1cc(F)c(NS(=O)(=O)c2c[nH]c(-c3ccc(F)cc3)c2)cc1F` [Cpd 509, N-(4-cyano-2,5-difluorophenyl)-5-(4-fluorophenyl)-1H-pyrrole-3-sulfonamide], the pIC50 is more than 6.30.
